Measured values published in PMC11375794, “Discovery of new Hsp90–Cdc37 protein–protein interaction inhibitors: in silico screening and optimization of anticancer activity” (RSC Advances, 2024).

Biological target: T1, full-length Hsp90β (Homo sapiens, UniProt P08238)
T1 construct: For the protein expression of full-length Hsp90β, we received plasmids as a kind gift; made in house; host or cells: Escherichia coli strain Rosetta
Experiment: Ligand-observed protein NMR (STD, trNOESY) with Hsp90β
Format: binding
Settings: for STD amplification factor (AMP): Hsp90β : ligand 1 : 200
Method: High-resolution NMR spectra of 13g were recorded using a Bruker Avance Neo 600 MHz spectrometer with a cryoprobe at 25 °C. Data collection employed pulse sequences from the Bruker library, and analysis was conducted using Bruker Topspin 4.2.0. The residual water signal was suppressed by excitation sculpting[54] with a 5 ms selective pulse, and a T1ρ filter of 100 ms was used to remove background protein resonances. The ^1H spectral widths were set at 5263 Hz. NMR samples were prepared in a buffer containing 50 mM potassium phosphate (pD 7.5), 100 mM KCl in D2O, 5 mM MgSO4, 2 mM DTT-d10, 0.02% NaN3, and 2% DMSO-d6. Full proton assignment (see ESI Fig. S6 and Table S2 ^†) was achieved using TOCSY, NOESY, ROESY, and HSQC spectra. The ^1H STD spectra were recorded with a protein : ligand ratio of 1 : 200, with protein and ligand concentrations of […] and 3 mM.
For the ^1H STD ligand epitope mapping experiments,[55] 65 536 data points (6.23 s and acquisition time) were used, with a relaxation delay of 1.63 s and 5120 scans. A short protein saturation time of 0.5 s was utilized to minimize the effect of relaxation on the STD amplification factors.[56] Selective on-resonance saturation of Hsp90β was performed at −0.827 ppm, with the transmitter offset referenced to 4.70 ppm. Off-resonance irradiation for the reference spectrum was applied at 30 ppm. The spectra were zero-filled and apodized using an exponential line-broadening function of 3 Hz. Errors in the STD amplification factor were estimated using the specified formula:[57] [drawing 46] NSTD and NREF are noise levels in STD and reference spectra. ISTD and IREF are signal intensities in STD and reference spectra. The relative errors of the STD amplification factors (Tables S3 and S6 ^†) for all protons are below 4%.
The trNOESY[58] spectra were recorded with 4096 data points in t2, 64 scans, 360 complex points in t1, and a relaxation delay of 1.5 s. […] The spectra were apodized with a squared sine bell function shifted by π/2 in both dimensions. Distances for 13g were calculated from the cross-peak volumes, assuming the integrated intensity of proton pairs 2′, 4′ and 1′, 5′ in the para-substituted phenyl ring with a distance of 2.5 Å and that the distances of the protons in pyrimidine ring are the same.

T1 sequence (P08238 whole entry): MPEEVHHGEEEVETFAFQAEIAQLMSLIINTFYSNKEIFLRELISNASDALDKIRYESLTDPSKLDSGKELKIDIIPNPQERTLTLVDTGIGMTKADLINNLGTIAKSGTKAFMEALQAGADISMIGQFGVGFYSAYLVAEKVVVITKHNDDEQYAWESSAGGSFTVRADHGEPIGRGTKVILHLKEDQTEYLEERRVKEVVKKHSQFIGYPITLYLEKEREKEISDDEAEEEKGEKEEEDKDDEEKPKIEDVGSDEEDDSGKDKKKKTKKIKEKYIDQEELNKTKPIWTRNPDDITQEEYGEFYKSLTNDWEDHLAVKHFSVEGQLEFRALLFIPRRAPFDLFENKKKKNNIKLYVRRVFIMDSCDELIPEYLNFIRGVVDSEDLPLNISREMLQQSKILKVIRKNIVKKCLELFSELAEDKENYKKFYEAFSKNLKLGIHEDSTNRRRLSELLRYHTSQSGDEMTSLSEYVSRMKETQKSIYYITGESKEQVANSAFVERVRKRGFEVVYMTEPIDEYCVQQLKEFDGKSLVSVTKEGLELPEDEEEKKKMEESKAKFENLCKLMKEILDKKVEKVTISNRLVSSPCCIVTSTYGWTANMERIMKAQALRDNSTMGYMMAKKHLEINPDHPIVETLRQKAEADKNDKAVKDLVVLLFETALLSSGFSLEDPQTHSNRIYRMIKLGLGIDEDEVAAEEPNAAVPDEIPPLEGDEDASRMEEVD

STD amplification factor (AMP) (proton 1''): 0.83 | STD amplification factor (AMP) (proton 3''): 4.88 | STD amplification factor (AMP) (protons 1', 5'): 1.75 | STD amplification factor (AMP) (protons 1, 5): 2.18 | STD amplification factor (AMP) (protons 2', 4'): 1.78 | STD amplification factor (AMP) (protons 2,3,4): 2.14
SMILES: O=C(NCCOc1ccccc1)c1ccc(Nc2cc(N3CCNCC3)ncn2)cc1 [Compound 13g, N-(2-Phenoxyethyl)-4-((6-(piperazin-1-yl)pyrimidin-4-yl)amino)benzamide]
binding to Hsp90β by transferred NOESY (trNOESY) (negative NOEs in the presence of Hsp90β): confirmed
